The target in one assay is capsid protein of HBV (Hepatitis B virus genotype D subtype ayw, UniProt P03146). Briefly: Binding to the capsid protein of HBV (general statement).
A further assay deals with HBV capsid / Cp dimer (Hepatitis B virus genotype D subtype ayw, UniProt P03146). Briefly: Size exclusion chromatography (Superose 6) of Cp assembly reactions (FIG. 2). The assay is classed as binding. How it is done: In this experiment, 5 μM Cp was mixed with FL-HAPAlexaFluor® 488 (Compound 5) and then induced to assemble with 150 mM NaCl. Reactions were resolved on a Superose 6 column after 24 hours. Capsid elutes at 9.5 ml, aggregates at 8 ml, and Cp dimer at 18 ml.
(§1) FL-HAPAlexaFluor® 488 (Compound 5) retains several critical properties of HAP molecules. […] Most importantly, FL-HAPAlexaFluor® 488 (Compound 5) binds pre-assembled cores with high affinity.

The next assay relates to control HepG2 cells. Briefly: Fluorescence microscopy of stained control cells (FIG. 4). The format is cell-based. As to conditions: camera on high gain. The text has this:
(§2) Various forms of FL-HAP may be synthesized thereby varying the resulting solubility properties of the fluorescent stain. The more soluble forms are particularly useful for observing HBV cores in solution or serum; they may also be useful for lightly staining intracellular HBV cores. The ability of the illustrative FL-HAP compound, FL-HAPAlexaFluor® 488 (Compound 5), to cross cell membranes and label HBV-expressing cells and, specifically, to label concentrations of HBV cores in those cells, is shown in FIG. 4. […] The more hydrophobic forms of FL-HAP (e.g., Compound 6 and Compound 7) are particularly useful for rapid staining of tissue samples.

The next assay addresses HBV capsids (Hepatitis B virus genotype D subtype ayw, UniProt P03146). The assay can be described thus: Staining of pre-assembled HBV capsids, sucrose gradient and agarose gel electrophoresis (FIG. 3). The assay is classed as binding. How it is done: Shown at left: Capsids stained with FL-HAPAlexaFluor® 488 (Compound 5) were separated on a sucrose gradient. […] Shown at right: Capsids, at the listed concentration, were stained with 25 nM FL-HAPAlexaFluor® 488 (Compound 5) prior to electrophoresis.
as §1

The next assay deals with HBV core protein (Cp) (Hepatitis B virus genotype D subtype ayw, UniProt P03146). The assay can be described thus: HBV core protein (Cp) assembly rate, assembly induced by NaCl (FIG. 1). The assay is classed as biochemical. As to conditions: 5 μM Cp, assembly induced with 150 mM NaCl, increasing concentration of stain. How it is done:
In this experiment, 5 μM Cp was incubated with or without FL-HAPAlexaFluor® 488 (Compound 5) prior to inducing assembly by addition of 150 mM NaCl.
as §1

In assay [1] the test system is HepG2 cells expressing RNA-filled HBV cores. The assay can be described thus: Fluorescence microscopy of stained HBV-producing cells (FIG. 4). The format is cell-based.
Source text: as §2

The structures appear in SMILES notation.

Chain of capsid protein of HBV (P03146 whole entry): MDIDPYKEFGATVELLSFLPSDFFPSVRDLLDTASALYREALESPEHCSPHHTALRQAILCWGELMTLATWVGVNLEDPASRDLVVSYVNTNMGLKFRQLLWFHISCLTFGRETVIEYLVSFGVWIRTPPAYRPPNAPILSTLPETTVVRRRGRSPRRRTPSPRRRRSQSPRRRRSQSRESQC
Chain of HBV capsids (P03146 whole entry): as above
Chain of HBV capsid / Cp dimer (P03146 whole entry): as above
Chain of HBV core protein (Cp) (P03146 whole entry): as above

For the compound `COC(=O)C1=C(CN2CCN(C(=O)CCCNC(=O)CCC3=[N+]4C(=Cc5c(C)cc(C)n5[B-]4(F)F)C=C3)CC2)NC(c2ccccn2)=NC1c1ccc(F)cc1Cl` (stereo not drawn) [Compound 7], the “binding to the capsid protein of HBV” value on capsid protein of HBV is reported as “specific binding”.
In the case of `COC(=O)C1=C(CN2CCN(C(=O)CCCNC(=O)c3ccc(-c4c5ccc(=N)c(S(=O)(=O)O)c-5oc5c(S(=O)(=O)O)c(N)ccc45)c(C(=O)O)c3)CC2)NC(c2ccccn2)=NC1c1ccc(F)cc1Cl` (stereo not drawn) [Compound 5], the “extent of assembly and size of complexes” value on HBV capsid / Cp dimer (5 μM Cp, 150 mM NaCl, Superose 6 column after 24 hours, increasing stain) is reported as “more assembly of progressively larger complexes”. For the same compound, at HBV capsid / Cp dimer (SEC, as stain is added), the “free HBV dimer remaining” value is on record as “progressively less free HBV dimer”. Besides, the “formation of aberrant particles” value on HBV capsid / Cp dimer (light scattering in excess of free capsid, products run faster on SEC than capsid) is given as “leads to formation of aberrant particles”. In addition, the “copies bound per HBV capsid” value on HBV capsid / Cp dimer (ratio of protein to fluorophore absorbance across SEC peaks) is recorded as “approximately 120 copies”. On HBV capsid / Cp dimer (visualized at 495 nm), the “species bound by the stain (capsid vs dimer)” value was “only assembled Cp (i.e., capsid) is bound”. Also, the “fluorescent labeling of cells” value in the assay on control HepG2 cells is “no green puncta are seen”; in assay [1] (HepG2 cells expressing RNA-filled HBV cores) it was “numerous puncta and aggregates of puncta are seen”. Further, the “dissociation from HBV capsids” value at HBV capsids was “dissociates slowly”. For the same compound, the “affinity for pre-assembled HBV cores” value on HBV capsids (SEC, sucrose gradient, agarose gel) is reported as “high affinity”. Also, the “binding to capsids on electrophoresis” value at HBV capsids (capsids stained with 25 nM stain prior to electrophoresis, non-equilibrium conditions) is “binding was evident at nM concentrations”. Also, the “effect on core protein assembly rate” value on HBV core protein (Cp) is given as “accelerates core protein assembly”. Also, the “binding to the capsid protein of HBV” value at capsid protein of HBV was “specific binding”. For the same compound, the “co-localization of fluorescence with Cp-specific antibodies” value in assay [1] (data not shown) is reported as “co-localize with Cp-specific antibodies”.
As for `COC(=O)C1=C(CN2CCN(C(=O)CCCNC(=S)Nc3ccc(-c4c5ccc(=O)cc-5oc5cc(O)ccc45)c(C(=O)O)c3)CC2)NC(c2ccccn2)=NC1c1ccc(F)cc1Cl` (stereo not drawn) [Compound 6], the “binding to the capsid protein of HBV” value at capsid protein of HBV was “specific binding”.

(Values after US10006913B2, “Fluorescent-HAP: a diagnostic stain for HBV cores in cells” (INDIANA UNIVERSITY RESEARCH AND TECHNOLOGY CORPORATION, priority 2013, dated 2018).)
